In US4560509A, “Antibiotic A39079 factor S-1” (Eli Lilly and Company, priority 1983, dated 1985):
Values after ≈ are worked out from the molar mass of the structure shown. Positions of bridges follow the written chain, without caps; N, C: chain ends. Non-standard residues stand in square brackets, D forms with d. Residues, ends and D or L forms follow the SMILES beside them. *: point of attachment. Ileψ(thiazoline)Cys = CC[C@H](C)[C@H](N)C1=N[C@H](C(=O)*)CS1; dOrn = NCCC[C@@H](N)C(=O)O

How the values were obtained:
Assay type in all cases: cell-based
[1] = tested on: Streptomyces spheroides NRRL 15600; assay: antibiotic sensitivity of the producing culture
Text: In classifying the microorganism as a new strain of S. spheroides, the methods recommended by the International Streptomyces Project (ISP) for the characterization of Streptomyces species [E. B. Shirling and D. Gottlieb, "Methods of Characterization of Streptomyces species," Int. J. Syst. Bacteriol. 16(3), 313-340 (1966)] were followed along with certain supplementary tests.

[2] = tested on: Escherichia coli; assay: antibiotic activity of column fractions
Protocol: (§1) Whole broth (100 L), prepared in a manner similar to that of Example 1, Section B, was filtered using a filter aid (Hyflo Supercel, Johns-ManvilleCorp.). The filtered broth (86 L) is adjusted to pH 2 with 5N hydrochloric acid and then is extracted twice with ethyl acetate (1/2 volumes). The ethyl acetate extracts are concentrated under vacuum to give an oily residue (49 g). This residue is dissolved in methanol and placed on a 10-L Diaion HP-20 column (Mitsubishi Industries). The column is washed with water (500 ml) and eluted with acetonitrile:water (30 L of 3:7 and 50 L of 3:2) and acetonitrile (20 L). Elution is carried out at a rate of 100 ml/min., collecting 4-liter fractions. Fractions are tested for antibiotic activity against Micrococcus luteus, Escherichia coli, and Neurospora crassa.

[3] = tested on: Citrobacter freundii CF17; assay: standard agar-dilution MIC assay; conditions: Citrobacter freundii, CF17
Text: (§2) Table V summarizes the minimal inhibitory concentrations (MIC) at which factor S-1 inhibits certain organisms as determined by standard agar-dilution assays. In Table V, the activity of factor S-1 is compared with that of rifampin.

[4] = tested on: Enterobacter aerogenes C32; assay: standard agar-dilution MIC assay; conditions: Klebsiella aerogenes, C32
Text: as §2

[5] = tested on: Enterobacter aerogenes EB17; assay: standard agar-dilution MIC assay; conditions: Klebsiella aerogenes, EB17
Text: as §2

[6] = tested on: Enterobacter cloacae 265A; assay: standard agar-dilution MIC assay; conditions: Enterobacter cloacae, 265A
Text: as §2

[7] = tested on: Enterobacter cloacae EB5; assay: standard agar-dilution MIC assay; conditions: Enterobacter cloacae, EB5
Text: as §2

[8] = tested on: Escherichia coli EC14; assay: standard agar-dilution MIC assay
Text: as §2

[9] = tested on: Escherichia coli N10; assay: standard agar-dilution MIC assay
Text: as §2

[10] = tested on: Escherichia coli TEM; assay: standard agar-dilution MIC assay
Text: as §2

[11] = tested on: Klebsiella pneumoniae KAE; assay: standard agar-dilution MIC assay; conditions: Klebsiella pneumoniae
Text: as §2

[12] = tested on: Klebsiella pneumoniae X26; assay: standard agar-dilution MIC assay; conditions: Klebsiella pneumoniae, X26
Text: as §2

[13] = tested on: Klebsiella pneumoniae X68; assay: standard agar-dilution MIC assay; conditions: Klebsiella pneumoniae, X68
Text: as §2

[14] = tested on: Proteus inconstans PR33; assay: standard agar-dilution MIC assay; conditions: Providencia alcalifaciens, PR33
Text: as §2

[15] = tested on: Proteus morganii PR15; assay: standard agar-dilution MIC assay; conditions: Morganella morganii, PR15
Text: as §2

[16] = tested on: Proteus rettgeri C24; assay: standard agar-dilution MIC assay; conditions: Providencia rettgeri, C24
Text: as §2

[17] = tested on: Pseudomonas aeruginosa Ps18; assay: standard agar-dilution MIC assay
Text: as §2

[18] = tested on: Pseudomonas aeruginosa X239; assay: standard agar-dilution MIC assay; conditions: Pseudomonas aeruginosa, X239
Text: as §2

[19] = tested on: Pseudomonas aeruginosa X528; assay: standard agar-dilution MIC assay; conditions: Pseudomonas aeruginosa, X528
Text: as §2

[20] = tested on: Salmonella typhi 1335; assay: standard agar-dilution MIC assay; conditions: Salmonella enterica
Text: as §2

[21] = tested on: Salmonella typhi X514; assay: standard agar-dilution MIC assay; conditions: Salmonella enterica
Text: as §2

[22] = tested on: Serratia marcescens SE3; assay: standard agar-dilution MIC assay; conditions: Serratia marcescens, SE3
Text: as §2

[23] = tested on: Serratia marcescens X99; assay: standard agar-dilution MIC assay; conditions: Serratia marcescens, X99
Text: as §2

[24] = tested on: Shigella sonnei N9; assay: standard agar-dilution MIC assay
Text: as §2

[25] = tested on: Staphylococcus aureus NRRL B313; assay: standard agar-dilution MIC assay; conditions: Staphylococcus aureus, NRRLB313
Text: as §2

[26] = tested on: Staphylococcus aureus S13E; assay: standard agar-dilution MIC assay
Text: as §2

[27] = tested on: Staphylococcus aureus V41; assay: standard agar-dilution MIC assay; conditions: Staphylococcus aureus, V41
Text: as §2

[28] = tested on: Staphylococcus aureus X400; assay: standard agar-dilution MIC assay; conditions: Staphylococcus aureus, X400
Text: as §2

[29] = tested on: Staphylococcus epidermidis 222; assay: standard agar-dilution MIC assay; conditions: Staphylococcus epidermidis, 222
Text: as §2

[30] = tested on: Staphylococcus epidermidis EPI1; assay: standard agar-dilution MIC assay
Text: as §2

[31] = tested on: Streptococcus faecium ATCC 9790; assay: standard agar-dilution MIC assay; conditions: Enterococcus faecium, ATCC9790
Text: as §2

[32] = tested on: Streptococcus pneumoniae Park 1; assay: standard agar-dilution MIC assay; conditions: Streptococcus pneumoniae, PARK1
Text: as §2

[33] = tested on: Streptococcus pyogenes C203; assay: standard agar-dilution MIC assay
Text: as §2

[34] = tested on: Streptococcus sp. group D 9960; assay: standard agar-dilution MIC assay; conditions: Streptococcus
Text: as §2

[35] = tested on: Neurospora crassa; assay: antibiotic activity of column fractions
Protocol: as §1

[H]/N=C(/N)N[C@H]1[C@H](O)[C@@H](O)[C@H](O[C@@H]2O[C@@H](C)[C@](O)(C=O)[C@H]2O[C@@H]2O[C@@H](CO)[C@H](O)[C@@H](O)[C@@H]2NC)[C@@H](N/C(N)=N\[H])[C@@H]1O [streptomycin]
resistance / sensitivity of the culture to antibiotic [1]: sensitive

O=C(N[C@H](CO)[C@H](O)c1ccc([N+](=O)[O-])cc1)C(Cl)Cl [Chloramphenicol]
resistance / sensitivity of the culture to antibiotic [1]: resistant
activity against E. coli [2]: active

Nc1ccc(S(=O)(=O)Nc2ncccn2)cc1 [sulfadiazine]
resistance / sensitivity of the culture to antibiotic [1]: sensitive

CO[C@H]1/C=C/O[C@@]2(C)Oc3c(C)c(O)c4c(O)c(c(/C=N/N5CCN(C)CC5)c(O)c4c3C2=O)NC(=O)/C(C)=C\C=C\[C@H](C)[C@H](O)[C@@H](C)[C@@H](O)[C@@H](C)[C@H](OC(C)=O)[C@@H]1C [Rifampin, reference compound]
MIC [3]: 16 µg/mL (≈ 19.4 µM)
MIC [4]: 32 µg/mL (≈ 38.9 µM)
MIC [5]: 32 µg/mL (≈ 38.9 µM)
MIC [6]: 32 µg/mL (≈ 38.9 µM)
MIC [7]: 32 µg/mL (≈ 38.9 µM)
MIC [8]: 16 µg/mL (≈ 19.4 µM)
MIC [9]: 16 µg/mL (≈ 19.4 µM)
MIC [10]: 128 µg/mL (≈ 156 µM)
MIC [11]: 32 µg/mL (≈ 38.9 µM)
MIC [12]: 16 µg/mL (≈ 19.4 µM)
MIC [13]: 16 µg/mL (≈ 19.4 µM)
MIC [14]: 16 µg/mL (≈ 19.4 µM)
MIC [15]: 32 µg/mL (≈ 38.9 µM)
MIC [16]: 8 µg/mL (≈ 9.72 µM)
MIC [17]: > 128 µg/mL
MIC [18]: 16 µg/mL (≈ 19.4 µM)
MIC [19]: 16 µg/mL (≈ 19.4 µM)
MIC [20]: 16 µg/mL (≈ 19.4 µM)
MIC [21]: 16 µg/mL (≈ 19.4 µM)
MIC [22]: 64 µg/mL (≈ 77.8 µM)
MIC [23]: 32 µg/mL (≈ 38.9 µM)
MIC [24]: 16 µg/mL (≈ 19.4 µM)
MIC [25]: 0.03 µg/mL (≈ 0.0365 µM)
MIC [26]: 0.03 µg/mL (≈ 0.0365 µM)
MIC [27]: 0.015 µg/mL (≈ 0.0182 µM)
MIC [28]: 0.06 µg/mL (≈ 0.0729 µM)
MIC [29]: 0.06 µg/mL (≈ 0.0729 µM)
MIC [30]: 0.06 µg/mL (≈ 0.0729 µM)
MIC [31]: 2 µg/mL (≈ 2.43 µM)
MIC [32]: 0.125 µg/mL (≈ 0.152 µM)
MIC [33]: 0.25 µg/mL (≈ 0.304 µM)
MIC [34]: 2 µg/mL (≈ 2.43 µM)
resistance / sensitivity of the culture to antibiotic [1]: resistant

CCC[C@@H]1C[C@@H](C(=O)N[C@@H]([C@H]2O[C@H](SC)[C@H](O)[C@@H](O)[C@H]2O)[C@@H](C)O)N(C)C1 [lincomycin]
resistance / sensitivity of the culture to antibiotic [1]: resistant

CN(C)[C@@H]1C(O)=C(C(N)=O)C(=O)[C@@]2(O)C(O)=C3C(=O)c4c(O)cccc4[C@@](C)(O)[C@H]3C[C@@H]12 [tetracycline]
resistance / sensitivity of the culture to antibiotic [1]: sensitive

CC[C@H]1OC(=O)[C@H](C)[C@@H](O[C@H]2C[C@@](C)(OC)[C@@H](O)[C@H](C)O2)[C@H](C)[C@@H](O[C@@H]2O[C@H](C)C[C@H](N(C)C)[C@H]2O)[C@](C)(O)C[C@@H](C)C(=O)[C@H](C)[C@@H](O)[C@]1(C)O [erythromycin]
resistance / sensitivity of the culture to antibiotic [1]: sensitive

CCn1cc(C(=O)O)c(=O)c2ccc(C)nc21 [nalidixic acid]
resistance / sensitivity of the culture to antibiotic [1]: resistant

CO[C@@H]1[C@@H](OC(N)=O)[C@@H](O)[C@H](Oc2ccc3c(O)c(NC(=O)c4ccc(O)c(CC=C(C)C)c4)c(=O)oc3c2C)OC1(C)C [novobiocin]
resistance / sensitivity of the culture to antibiotic [1]: sensitive

C[C@@H]1C[C@@H]([C@H](O)CC2CC(=O)NC(=O)C2)C(=O)[C@@H](C)C1 [Cycloheximide]
activity against N. crassa [35]: active

NC[C@@H]1O[C@H](O[C@H]2[C@@H](O)[C@H](O[C@@H]3[C@@H](O)[C@H](N)C[C@H](N)[C@H]3O[C@H]3O[C@H](CN)[C@@H](O)[C@H](O)[C@H]3N)O[C@@H]2CO)[C@H](N)[C@@H](O)[C@@H]1O [neomycin]
resistance / sensitivity of the culture to antibiotic [1]: sensitive

CC1(C)S[C@@H]2[C@H](NC(=O)Cc3ccccc3)C(=O)N2[C@H]1C(=O)O [penicillin G]
resistance / sensitivity of the culture to antibiotic [1]: sensitive

CC(=O)OCC1=C(C(=O)O)N2C(=O)[C@@H](NC(=O)Cc3cccs3)[C@H]2SC1 [cephalothin]
resistance / sensitivity of the culture to antibiotic [1]: sensitive

gentamicin
resistance / sensitivity of the culture to antibiotic [1]: sensitive

CN[C@H](CC(C)C)C(=O)N[C@H]1C(=O)N[C@@H](CC(N)=O)C(=O)N[C@H]2C(=O)N[C@H]3C(=O)N[C@H](C(=O)N[C@H](C(=O)O)c4cc(O)cc(O)c4-c4cc3ccc4O)[C@H](O)c3ccc(c(Cl)c3)Oc3cc2cc(c3O[C@@H]2O[C@H](CO)[C@@H](O)[C@H](O)[C@H]2O[C@H]2C[C@](C)(N)[C@H](O)[C@H](C)O2)Oc2ccc(cc2Cl)[C@H]1O [vancomycin]
resistance / sensitivity of the culture to antibiotic [1]: sensitive

CC[C@H](C)[C@H](N)C1=N[C@H](C(=O)N[C@@H](CC(C)C)C(=O)N[C@H](CCC(=O)O)C(=O)N[C@H](C(=O)N[C@H]2CCCCNC(=O)[C@H](CC(N)=O)NC(=O)[C@@H](CC(=O)O)NC(=O)[C@H](Cc3cnc[nH]3)NC(=O)[C@@H](Cc3ccccc3)NC(=O)[C@H]([C@@H](C)CC)NC(=O)[C@@H](CCCN)NC2=O)[C@@H](C)CC)CS1 [bacitracin] ({Ileψ(thiazoline)Cys}-L[dE]IK[dOrn]I[dF]H[dD]N; lactam 4-C)
resistance / sensitivity of the culture to antibiotic [1]: sensitive

polymyxin B
resistance / sensitivity of the culture to antibiotic [1]: sensitive
